# According to patent US12503707B2, “Methods, plants and compositions for overcoming nutrient suppression of mycorrhizal symbiosis” (Cambridge Enterprise Limited, priority 2020, dated 2025):
# Experiments:
# [1] = test system: M. truncatula root epidermal cells; experiment: LCO-induced nuclear calcium oscillations after strigolactone or karrikin pre-treatment; format: cell-based, Medicago truncatula; settings: 3.75 mM PO4− and 0 mM NO3−; 1 μM pre-treatment for 12 hours, then LCO
# Protocol: (§1) FIGS. 11A-11B provide the effects of strigolactone or karrikin treatment on M. truncatula (FIG. 11A) and H. vulgare (FIG. 11B) root epidermal cell nuclear calcium oscillations. FIG. 11A provides traces of nuclear calcium oscillations produced by M. truncatula root epidermal cells. Cells were grown under high phosphate and limiting nitrate levels (3.75 mM PO4^− and 0 mM NO3^−). The top trace represents control cells that were pretreated with buffer alone; the second trace represents cells that were pretreated with 1 μM of strigolactone 5-deoxystrigol for 12 hours; and the third trace represents cells that were pretreated with a 1 μM mixture of karrikin 1 and karrikin 2 (KARs) for 12 hours. All cells were secondarily treated with 10^−8 M NS-LCO. The scale bar indicates a span of 10 minutes, and the fractions indicate the number of cells that responded over the total number of cells analyzed.
# In FIGS. 11A-11B, M. truncatula (FIG. 11A) and H. vulgare (FIG. 11B) plants were grown on media containing high phosphate and limiting nitrate (3.75 mM PO4^− and 0 mM NO3^− for M. truncatula; 0 mM NO3^− and 0.5 mM PO4^− for H. vulgare). H. vulgare pants tested in FIG. 14A were grown on BNM media containing high nitrate and high phosphate (5 mM NO3^− and 0.5 mM PO4^−). […]
# [2] = test system: H. vulgare LysM receptor-like kinase homologs; experiment: LysM receptor-like kinase gene expression by RT-qPCR after strigolactone or karrikin treatment; format: in vivo, Hordeum vulgare; settings: −N+P plates for 4 days, then 0.1 μM for 24 hours; relative to DMSO mock
# Excerpt: FIG. 13 provides the relative expression levels of H. vulgare genes, including LysM receptor-like kinase homologs, in response to treatment with strigolactone or karrikin signaling molecules, as determined by qPCR. The H. vulgare gene is indicated on the x-axis including, from left to right, HvSTH7b (a homolog of Arabidopsis STH7, a karrikin-responsive gene (Nelson et al., 2010, PNAS)), HvRLK2, HvRLK3, HvRLK7, HvRLK9, and HvRLK10. Relative expression levels are shown on the y-axis. Values shown are the mean of three samples±SD. ** indicates P<0.01, and * indicates 0.01<P<0.05, as determined by a Student's t-test. […]
# Wild type H. vulgare plants tested in FIG. 13 were grown on BNM plates for four days, and the plate roots were then treated with either 0.1 μM 5′-deoxystrigol (Chiralix), a mixture of 0.1 μM Karrikin 1 or 0.1 μM Karrikin 2 (Chiralix), or 0.1 μM GR24 (Chiralix) in liquid BNM for 24 hours. […] Real-time quantitative PCR (RT-qPCR) was performed using SensiFAST SYBR No-ROX Kit. An H. vulgare ADP gene was used as a reference gene, and fold changes were calculated for 5′-deoxystrigol-, karrikins- or GR24-treated roots with respect to DMSO-treated roots (mock treatment). […]
# [3] = test system: H. vulgare root epidermal cells; experiment: LCO-induced nuclear calcium oscillations after strigolactone, karrikin and/or CEP pre-treatment; format: cell-based, Hordeum vulgare; settings: then 10^−7 M SmLCO
# Protocol: as §1
# FIGS. 14A-14D provide the effects of treating H. vulgare plants with a strigolactone or with both a strigolactone and a CEP peptide. […] The scale bar indicates a span of 10 minutes, and the fractions indicate the number of cells that responded over the total number of cells analyzed. FIGS. 14B-14C provide the level of mycorrhizal colonization of H. vulgare when treated with the synthetic strigolactone analog GR24 under different nutrient conditions, as determined in two separate experiments. […]
substance,measurement,setting,value
5-deoxystrigol [strigolactone],symbiotic calcium oscillations under replete phosphate after pre-treatment,[1],overrode phosphate suppression of symbiotic calcium oscillations
same,"expression of LysM receptor-like kinase genes, including RLK10",[2],induced
same,symbiotic calcium oscillations under replete phosphate after pre-treatment,"[3]; 0 mM NO3− and 0.5 mM PO4−, 1 μM pre-treatment for 12 hrs",overrode phosphate suppression of symbiotic calcium oscillations
same,LCO induction of calcium oscillations under high nitrate after pre-treatment,"[3]; 5 mM NO3− and 0.5 mM PO4−, 1 μM SL",only limited LCO induction of calcium oscillations
